ChEMBL document CHEMBL1156829 (Proc Natl Acad Sci U S A, 2008)

Tests used:
Plasmodium falciparum [1] = assay: NOVARTIS: Inhibition of Plasmodium falciparum 3D7 (drug-susceptible) proliferation in erythrocyte-based infection assay; type: functional, organism-based; conditions: Plasmodium falciparum, 3D7
Plasmodium falciparum [2] = assay: NOVARTIS: Inhibition of Plasmodium falciparum W2 (drug-resistant) proliferation in erythrocyte-based infection assay; type: functional, organism-based; conditions: Plasmodium falciparum, W2; read-out: EC50
[3] = NOVARTIS: Cytotoxicity against human hepatocellular carcinoma cell line (Huh7); type: toxicity, cell-based, Huh-7; conditions: Huh7 cells (hepatocellular carcinoma cell line)

Row | SMILES | EC50 (Plasmodium falciparum [1]) [µM] | EC50 (Plasmodium falciparum [2]) [µM] | CC50 [3] [µM]
1 | O=C(O)CS(=O)(=O)c1ccc(C(=O)NCC(c2cccnc2)N2CCOCC2)cn1 (stereo not given) | > 0.876 | 0.131 | > 10
2 | Nc1nc(N)c2cc(S(=O)(=O)c3ccc4ccccc4c3)ccc2n1 | 0.0973 | 1.71 | 49.5
3 | COc1ccc(-c2c[n+](CC(=O)c3ccc(Cl)cc3)c3n2CCC3)cc1 | 0.641 | 0.15 | > 100
4 | COc1ccc(OC)c(C(C(=O)NC2CCCC2)N(C(=O)c2snc(C(N)=O)c2N)c2ccccc2OC)c1 (stereo not given) | 2.54 | 1.79 | > 100
5 | FC(F)(F)c1cccc(NC(=S)N2CCCC2c2ccccc2C(F)(F)F)c1 (stereo not given) | 0.213 | < 0.013 | > 10
6 | CCOc1ccc(N(CC)S(=O)(=O)c2cc(Br)cc3c2N(C(C)=O)CC3)cc1 | 0.125 | 0.0761 | > 100
7 | CCOC(=O)c1cnc2ccc(OC)cc2c1Cl | 2.76 | 1.25 | > 100
8 | COc1ccc(CCNC(=S)Nc2ccccc2C)cc1OC | 1.09 | 0.698 | > 100
9 | COc1ccc(C(NC(=O)COc2ccccc2)c2cc(Cl)c3cccnc3c2O)cc1OC (stereo not given) | 4.66 | 3.08 | 18.5
10 | CCc1nnc2n1N(C(C)=O)C(c1ccc(Cl)c(Cl)c1)=C(C(C)=O)S2 | > 1.25 | > 0.835 | > 10
11 | CCN1/C(=C/c2sc3ccc(Br)cc3[n+]2CC)C=Cc2ccccc21 | 0.645 | 1.08 | > 10
12 | CC(=O)Nc1ccc2nc(C)sc2c1 | > 1.25 | > 0.445 | > 10
13 | Oc1cc(-c2ccccc2)nc2ccccc12 | 1.06 | 0.547 | > 93.2
14 | CCOc1ccc2c(c1)sc(=NC(=O)Nc1ccc(OC)cc1)n2C | > 8.3 | 0.997 | 17.8
15 | OP1(O)=NP(O)(O)=NP(O)(O)=NP(O)(O)=N1 | 0.811 | > 1.25 | > 10
16 | COc1c(C=NNc2nc(Nc3ccc([N+](=O)[O-])cc3)nc(N3CCN(C)CC3)n2)cccc1[N+](=O)[O-] | 0.34 | 0.493 | 56.9
17 | Oc1ccc(-c2ccnc3cc(Cl)ccc23)cc1CNCC1(O)CCCCC1 | 1.02 | < 0.0238 | > 13.7
18 | CCCCCCN(C(=O)COc1ccc(Cl)cc1)C(CC)c1nc2ccccc2c(=O)n1-c1cccc(Cl)c1 (stereo not given) | 0.433 | 1.14 | > 10
19 | CCOc1ccc(CN(C(=O)C(C)(C)CCl)C(C)CCCN(CC)CC)cc1 (stereo not given) | > 0.878 | 0.941 | > 10
20 | CCCNC1=C(N(C(C)=O)c2cccc(F)c2)C(=O)c2ccccc2C1=O | 0.029 | 0.0284 | 5.39
21 | COC(=O)c1sccc1S(=O)(=O)N1CCCC(c2[nH]ncc2-c2ccccc2)C1 (stereo not given) | 3.03 | 3.44 | > 100
22 | Cc1sc2ncnc(Nc3ccncc3)c2c1C | > 12.5 | > 1.45 | > 100
23 | CSc1nc2sc3c(c2c(=O)n1-c1ccccc1)CCN(CCc1ccccc1)C3 | 0.859 | 1.14 | > 69.3
24 | CC[n+]1c(/C=C2\C=C(C)CC(C)C2)sc2ccccc21 (stereo not given) | > 1.14 | > 0.913 | > 10

Row | SMILES | EC50 (Plasmodium falciparum [1]) [µM] | EC50 (Plasmodium falciparum [2]) [µM] | CC50 [3] [µM]
25 | COc1cc(NC(C)CCCN(Cc2ccc(OC)c(OC)c2)C(=O)CC(C)CC(C)(C)C)c2ncccc2c1 (stereo not given) | 1.04 | 0.64 | 5.89
26 | CCc1ccc(NC(=O)CSc2nc(C)cc(C)c2C#N)cc1 | > 1.25 | > 0.694 | > 10
27 | COc1ccc(OC)c(NC(=O)CSc2nc(NCc3ccc(Cl)cc3)c3ccccc3n2)c1 | > 11.2 | > 11.2 | > 100
28 | C=CCNC(=O)c1cc2c(=O)n3cccc(C)c3nc2n(CCc2ccccc2)c1=N | 0.702 | 0.982 | > 100
29 | COc1ccc(NC2=CC(=O)CC(c3ccccc3)C2)c(OC)c1 (stereo not given) | > 12.5 | 7.74 | > 100
30 | CN(C)c1ccc(NC(=O)C2C3C=CC(O3)C2C(=O)O)cc1 (stereo not given) | 0.12 | 0.0477 | 32.8
31 | N/C(=N\C(=O)c1nc(Cl)c(N)nc1N)NCc1ccc(Cl)c(Cl)c1 [3',4' DICHLOROBENZAMIL] | 0.0896 | 0.283 | 4.59
32 | Cc1cc(C)cc(-n2c(C)cc(/C=C3\SC(=Nc4ccc(Br)cc4)NC3=O)c2C)c1 | 2.58 | 4.45 | > 100
33 | Cc1ccc(S(=O)(=O)Nc2ccc(C(=O)NCCC(C)C)cc2)cc1 | > 0.837 | > 1.25 | > 10
34 | CN(C)Cc1c(O)ccc2oc(Cc3ccccc3)cc12 | 0.219 | 0.059 | 20.1
35 | COc1cc(C2C(C(=O)OCCc3ccccc3)=C(C)NC3=C2C(=O)CC(c2ccc(Cl)cc2)C3)ccc1OCc1ccccc1 (stereo not given) | 6.94 | 1.58 | > 100
36 | CCOC(=O)C1=CN(c2cc(C)ccc2C)C=C(C(=O)OCC)C1c1ccccc1OC | 4.43 | 1.28 | > 100
37 | Cc1cccn2c(NCc3ccccc3)c(-c3ccccc3OC(=O)C(C)Cl)nc12 (stereo not given) | 0.764 | 0.925 | > 100
38 | COc1ccc(OCC(=O)Nc2cccc(NC(=O)COc3ccc(OC)cc3)n2)cc1 | 6.84 | 2.29 | > 100
39 | Cc1sc2nc3c4ccccc4c(NCCCN(C)C)nn3c(=O)c2c1C | 6.6 | 2.3 | 60
40 | CCN1CCC(N2C[C@H](n3cc(C(=O)OC)nn3)C[C@H]2C(=O)NCc2cccc(C(F)(F)F)c2)CC1 | > 1.25 | > 0.563 | > 10
41 | COc1cc2nc(SCC(C)C)n(CCCn3ccnc3)c(=N)c2cc1OC | 0.822 | 0.926 | 19.9
42 | Cc1ccc(O)c(C(=O)c2c[nH]c(-c3nc4ccccc4[nH]3)c2)c1 | 2.88 | 2.47 | 5.65
43 | Cn1c(=O)[nH]c2c(c1=O)n(C)c(=O)n2C | > 0.957 | > 0.799 | > 10
44 | O=[N+]([O-])c1ccc(N2CCCN(C(=S)Nc3ccc(F)cc3Br)CC2)nc1 | 0.11 | 0.0903 | > 100
45 | c1ccc2c(c1)ccc1cc3cccc[n+]3cc12 | 1.38 | 0.795 | 37
46 | COc1ccc(Nc2ccccc2NC(=O)c2cccc(N(C)C)c2)cc1 | 2.45 | 2.29 | > 100
47 | COc1cccc(N2CCN(CCNCCOc3ccccc3)[C@@H](Cc3ccccc3)C2)c1 | 0.703 | 0.383 | > 7.31
48 | CCOCc1nnc(NC(=O)COc2ccc(Cl)cc2Cl)s1 | > 12.5 | 6.42 | > 100

Row | SMILES | EC50 (Plasmodium falciparum [1]) [µM] | EC50 (Plasmodium falciparum [2]) [µM] | CC50 [3] [µM]
49 | O=C(NCCCCCCNC(=O)Nc1nc(-c2ccc(F)cc2)cs1)Nc1nc(-c2ccc(F)cc2)cs1 | 5.97 | 5.06 | 51.6
50 | CCCCc1ccc(C(=O)N(CCC(=O)Nc2nnc(-c3ccc(OC)cc3)s2)CCc2ccc(OC)c(OC)c2)cc1 | 1.24 | > 0.757 | > 10
51 | Cc1cc(C)cc(Nc2cc(C)nc3ncnn23)c1 | 1.22 | 0.901 | > 100
52 | CN1C=CC=CC1=CC=C1C=Nc2ccccc21 | 0.236 | 0.232 | 20.9
53 | COC(=O)c1sc2nc(CN(C)CC(C)C)ccc2c1NC(=O)c1ccc(C)s1 | > 12.5 | 4.01 | > 100
54 | COC(=O)[C@@H]1C[C@@H](NC(=O)c2ccc(OC)cc2OC)CN1Cc1cccc2ccccc12 | 4.69 | 1.49 | > 100
55 | CCOC(=O)C1CCCN(C(=O)c2c(C)oc3c2C(=O)c2ccccc2C3=O)C1 (stereo not given) | 0.171 | 0.163 | 20.4
56 | COc1cc([N+](=O)[O-])ccc1NC(=O)CN1CCN(C(=O)c2ccco2)CC1 | 1.6 | 0.832 | > 100
57 | COc1ccc(CCNc2nc(NCCCN3CCCCC3C)ncc2C(=O)NCc2ccccc2)cc1OC (stereo not given) | 0.323 | < 0.0161 | > 10
58 | COc1ccc(CCNc2nc(NCCCN3CCCC3)ncc2C(=O)NCC(C)C)cc1OC | 0.809 | > 1.35 | > 10
59 | COc1ccc2c(c1)CC1c3c(cc4c(c3-2)OCO4)CCN1C (stereo not given) | 0.0385 | 0.121 | 15.6
60 | CC(C)c1ccc(/C=C/C(=O)NCc2ccco2)cc1 | 0.89 | 0.628 | > 10
61 | O=C(Nc1ccccc1C(F)(F)F)N1CCC(N2CCCCC2)CC1 | > 9.51 | 1.5 | > 100
62 | COc1cc(NCCCC(C)N)c2ncccc2c1 (stereo not given) | 0.215 | 0.418 | 14.4
63 | O=[N+]([O-])c1cccc(C(Nc2nccs2)c2ccc3cccnc3c2O)c1 (stereo not given) | 0.294 | 0.198 | 16.1
64 | CCOC(=O)c1ccc(NC(=O)c2cc3ccccn3n2)cc1 | > 1.25 | > 0.5 | > 10
65 | c1ccc2cc3c(Nc4ccc(N5CCOCC5)cc4)ccnc3cc2c1 | 0.672 | 0.0839 | 69.5
66 | CCCOC(=O)C1=C(C)NC2=C(C(=O)CC(c3ccc(OC)cc3)C2)C1c1ccccc1F (stereo not given) | 0.055 | 0.0201 | > 100
67 | Cc1ccc(NC(=O)COc2ccc(Cl)cc2Cl)nc1 | > 5.57 | > 3.03 | > 100
68 | COc1ccc(CCn2c(SCC(=O)N3CCN(c4ccccc4OC)CC3)nc3ccccc3c2=O)cc1OC | > 1.25 | > 0.864 | > 10
69 | c1ccc(-c2cc(NCCCN3CCOCC3)nc(-c3ccccn3)n2)nc1 | > 1.01 | 0.586 | > 10
70 | CCc1ccc2c(c1)C1(NN=C(c3ccc(C)cc3)S1)C(=O)N2 (stereo not given) | 1.49 | 2.1 | 23.8
